Numbers after ± are expanded uncertainties.

For data set [1] the following is noted: Crystal; DSC.
Data set [2] is described as follows: Molar enthalpy of transition or fusion. The note with it: Crystal; DSC.

With `O=C(CCc1ccc(O)cc1)c1c(O)cc(O)cc1O` [3-(4-hydroxyphenyl)-1-(2,4,6-trihydroxyphenyl)propan-1-one], the Triple point temperature in data set [1] stood at 542.96 ± 1.2 K. In addition, the “Molar enthalpy of transition or fusion” value in data set [2] came out at 13.5 ± 0.837 kcal/mol.
In the same order, the values of `C[C@@H]1O[C@@H](O[C@H]2[C@H](Oc3cc(O)c(C(=O)CCc4ccc(O)cc4)c(O)c3)O[C@H](CO)[C@@H](O)[C@@H]2O)[C@H](O)[C@H](O)[C@H]1O` [naringin dihydrochalcone] are 432.22 ± 1.2 K and 7.08 ± 0.454 kcal/mol.

The values are drawn from the NIST ThermoML archive (doi:10.1021/acs.jced.6b00552).
